# Test results as given in US20070059799A1 (priority 1999, published 2007).
# Read-outs that look alike come from different tables or passages of the source.
# Legend:
# A2-supertype alleles = format: binding, human; conditions: number of supertype alleles bound; 3 or more considered degenerate
# A*0301 = biological target: T1, A*0301 (Homo sapiens, UniProt P04439); assay: Purified HLA class I peptide binding assay (HLA-A*03)
# T1 construct: endogenous in cells; host or cells: GM3107
# CTL = format: cell-based
# human PBMC = format: cell-based; conditions: primary cultures, responders/tested
# [1] = B7-supermotif cross-reactive peptides
SMILES,Alleles bound (A2-supertype alleles),further results
CC[C@H](C)[C@H](NC(=O)[C@H](CC(C)C)NC(=O)[C@H](CS)NC(=O)[C@H](CC(C)C)NC(=O)[C@H](CC(C)C)NC(=O)[C@H](CC(C)C)NC(=O)[C@@H](NC(=O)[C@@H](N)Cc1ccccc1)[C@@H](C)CC)C(=O)N[C@@H](Cc1ccccc1)C(=O)N[C@@H](CC(C)C)C(=O)O [Peptide 1.0895],1,
CC(C)C[C@H](NC(=O)[C@H](CC(C)C)NC(=O)[C@@H]1CCCN1C(=O)CNC(=O)[C@H](CC(C)C)NC(=O)[C@@H](N)Cc1ccccc1)C(=O)N[C@H](C(=O)N[C@@H](CC(C)C)C(=O)N[C@@H](CCC(N)=O)C(=O)N[C@@H](C)C(=O)O)C(C)C [Peptide 3.0205],1,
CC[C@H](C)[C@H](NC(=O)[C@H](Cc1c[nH]c2ccccc12)NC(=O)[C@@H](NC(=O)CNC(=O)[C@H](Cc1ccccc1)NC(=O)[C@H](CO)NC(=O)[C@@H](N)C(C)C)C(C)C)C(=O)N[C@@H](CCCNC(=N)N)C(=O)O [Peptide 26.0023],,IC50 (A*0301): 2.75 µM
CC[C@H](C)[C@H](NC(=O)[C@@H](N)Cc1c[nH]c2ccccc12)C(=O)N[C@@H](CC(C)C)C(=O)N[C@@H](CCCNC(=N)N)C(=O)NCC(=O)N[C@H](C(=O)N[C@@H](CO)C(=O)N[C@@H](Cc1ccccc1)C(=O)N[C@H](C(=O)O)C(C)C)[C@@H](C)O [Peptide 927.24],1,
CC(C)C[C@H](NC(=O)[C@H](CO)NC(=O)[C@H](CC(C)C)NC(=O)[C@@H](N)Cc1c[nH]c2ccccc12)C(=O)N[C@@H](CC(C)C)C(=O)N[C@H](C(=O)N1CCC[C@H]1C(=O)N[C@@H](Cc1ccccc1)C(=O)N[C@H](C(=O)O)C(C)C)C(C)C [Peptide 1013.0102],4,
CSCC[C@H](NC(=O)CNC(=O)[C@H](CCC(N)=O)NC(=O)[C@H](Cc1ccc(O)cc1)NC(=O)[C@H](CC(=O)O)NC(=O)[C@H](CC(C)C)NC(=O)[C@H](CC(C)C)NC(=O)[C@@H](N)C(C)C)C(=O)N[C@@H](CC(C)C)C(=O)O [Peptide 1069.09],2,
CC[C@H](C)[C@H](NC(=O)CNC(=O)[C@H](C)NC(=O)[C@H](CCCCN)NC(=O)[C@H](Cc1c[nH]c2ccccc12)NC(=O)[C@H](CC(C)C)NC(=O)[C@@H](NC(=O)[C@H](Cc1c[nH]cn1)NC(=O)[C@H](CC(C)C)NC(=O)[C@@H](N)Cc1ccc(O)cc1)[C@@H](C)O)C(=O)O [Peptide 1069.11],2,
CC[C@H](C)[C@H](NC(=O)[C@H](Cc1c[nH]cn1)NC(=O)[C@H](Cc1ccccc1)NC(=O)[C@H](Cc1c[nH]c2ccccc12)NC(=O)[C@H](CC(C)C)NC(=O)[C@@H](N)CC(C)C)C(=O)N[C@@H](CO)C(=O)N[C@@H](CS)C(=O)N[C@@H](CC(C)C)C(=O)O [Peptide 1142.01],2,
CC(C)C[C@H](NC(=O)[C@H](CS)NC(=O)[C@H](Cc1c[nH]cn1)NC(=O)[C@@H]1CCCN1C(=O)[C@@H](N)Cc1ccccc1)C(=O)N[C@@H](C)C(=O)N[C@@H](Cc1ccccc1)C(=O)N[C@@H](CO)C(=O)N[C@@H](Cc1ccc(O)cc1)C(=O)O [Peptide 1145.08],,"Immunogenicity overall (CTL; [1]): −; Immunogenicity overall (CTL; positive when responders noted in primary cultures, acute patients or transgenic mice): unk; Immunogenicity primary (human PBMC; [1]): 0/4; Immunogenicity primary (human PBMC): 0/4"
CC[C@H](C)[C@H](NC(=O)CNC(=O)[C@H](C)NC(=O)[C@H](CCCCN)NC(=O)[C@H](Cc1c[nH]c2ccccc12)NC(=O)[C@H](CC(C)C)NC(=O)[C@@H](NC(=O)[C@@H](N)Cc1c[nH]cn1)[C@@H](C)O)C(=O)N[C@@H](CC(C)C)C(=O)N[C@@H](Cc1ccc(O)cc1)C(=O)N[C@@H](CCCCN)C(=O)O [Peptide 1147.16],,IC50 (A*0301): 0.02 µM
